Test results taken from patent US20020028807A1, “Non-nucleoside reverse transcriptase inhibitors” (priority 2000, published 2002).

Legend:
HIV-1 RT Y188L = target: T1, HIV-1 RT Y188L (Human immunodeficiency virus type 1 group M subtype B, UniProt P03366, Y787L); test: Reverse transcriptase (RT) assay, Y188L mutant; format: biochemical
T1 construct: an HIV RT clone pKRT2 containing only the RT p66 gene regulated by the lac operon/trc promoter; made in house; host or cells: E. coli JM109, vector pKK233-2
Text: (§1) Among the enzymes for which Human Immunodeficiency Virus (HIV-1) encodes is a reverse transcriptase (1), so-named because it transcribes a DNA copy from an RNA template. This activity can be quantitatively measured in a cell-free enzyme assay and is based upon the observation that reverse transcriptase is able to use a synthetic template poly r(C) primed with a biotinylated oligo d(G) to transcribe a radio-labelled DNA strand utilising 3H-dGTP as a substrate. The assay described below utilises the wild-type enzyme (which is the predominant form of the enzyme observed in patients infected with HIV-1) and can also be used with mutant RT enzymes (for example, Y181C, prepared by site-directed mutagenesis in which the tyrosine residue at codon 181 has been replaced by a cysteine residue) in analogous assay conditions. This assay allows compounds to be evaluated for their effectiveness at inhibiting the mutant enzymes.
(§2) Some HIV-1 IIIB clone BH10 RT mutants were provided by Dr. C.-K. Shih (Boehringer Ingelheim Pharmaceutials Inc., U.S.A.) in the vector pKK233-2 (Pharmacia). Briefly an HIV RT clone pKRT2 containing only the RT p66 gene regulated by the lac operon/trc promoter was obtained from Dr. W. Summers (Yale University) (2). A variety of specific amino acid substitutions were introduced into the wild-type RT gene by site-directed mutagenesis. RT clones were subcloned into the pKK233-2 bacterial expression vector. Clones provided included wild-type, Val106Ala, Tyr181Cys, Tyr188Cys, Tyr188Leu, Gly190Ala and Pro236Leu. Others were made in-house by site-directed mutagenesis of the pKK233-2 RT clones including Lys103Asn, Lys103Asn/Tyr181Cys, Lys103Asn/Leu100Ile, Lys103Asn/Pro225His, and Lys103Asn/Val108Ile.
(§3) Purification of recombinant reverse transcriptase was performed using a combination of methods previously described (3). A single colony from a fresh plate of transformed JM109 cells was used to initiate growth of a pre-culture grown o/n at 37° C. Two liters of growth medium were inoculated with this pre-culture. At OD600˜1.5 (5-6 h at 37° C.), RT gene expression was induced with IPTG (1 mM final), and the fermentation was continued for a few more hours at 37° C. After centrifugation, supernatants were discarded while cell pellets were pooled and stored at −80° C. until purification. Cells were thawed at 4° C. overnight and suspended in lysis buffer (MES 50 mM pH 6, EDTA 1 mM, 10% v/v glyerol, 0.02% w/v OBG, 0.02% w/v sodium azide). Lysozyme was added and the mixture was incubated on ice for 40 minutes. After homogenization using a bounce in presence of lysozyme and sonication, the cells were centrifuged for 30 minutes. Supernatant (S1) was saved and stored at 4° C. The centrifuged pellet was resuspended in extraction buffer (MES 50 mM pH 6, KPO4 50 mM pH 6, KCl 100 mM, 10% v/v glycerol, 0.02% w/v OBG, 0.02% w/v sodium axide) and stirred for 30 minutes at 4° C. This second mixture was centrifuged again and the supernatant (S2) was saved. The above procedure was repeated 2 more times saving supernatants S3 and S4 and one last extraction was performed overnight (S5). Polymin P (0.005% final) was added to the combined supernatants to remove nucleic acids. This solution was stirred for 75 minutes at 4° C. and centrifuged for 1 h. The supernatant (SS1) was precipitated on ice with 20% w/v ammonium sulfate and stirred for 1 h at 4° C. The mixture was then centrifuged and the resulting supernatant (SS2) was precipitated with additional 40% w/v ammonium sulfate (60% total), stirred for 1 h and centrifuged again. The final pellet (P1) was stored overnight at 4° C. before undergoing purification the following day. All steps of the purification were performed at 4° C. unless otherwise stated.
(§4) Pellet (P1) was resuspended into MES 50 mM pH 6, KPO4 10 mM pH 6, KCl 100 mM, 10% v/v glycerol, 0.02% w/v OBG, 0.02% w/v sodium azide. The suspension was dialysis against the same buffer overnight using 12-14 kD MWCO dialysis tubing. […]

[1] = test system: HIV coding for wild-type reverse transcriptase (WT RT); test: ELISA (p24) assay of HIV replication in C8166 cell culture, wild-type RT virus; format: cell-based, HIV-1; settings: Human immunodeficiency virus 1, C8166, 72 h, read-out: EC50 WT RT
Experimental: (§5) Compounds of the invention were tested for their ability to inhibit HIV replication in cell culture in a 96-well plate assay. Complete RPMI 1640, consisting of RPMI 1640+10% fetal bovine serum, 10 μg/ml gentamycin and 10 μM β-mercaptoethanol was used for dilution of the compound as well as cell growth medium. The T lymphocyte cell line C8166 was infected at a multiplicity of infection of 0.001 with viruses coding for wild-type and mutant reverse transcriptase. Cells were then incubated for three days in the presence of serial dilutions of the compounds of the invention. The supernatant was pooled from eight replica wells and the concentration of extracellular p24 was determined using a commercially available HIV-1 p24 antigen assay kit (Beckman-Coulter®). The level of inhibition (% inhibition) was calculated with the following equation: [formula]

HIV-1 RT K103N/V108I = target: T2, HIV-1 RT K103N/V108I (Human immunodeficiency virus type 1 group M subtype B, UniProt P03366, K702N/V707I); test: Reverse transcriptase (RT) assay, K103N/V108I mutant; format: biochemical
T2 construct: an HIV RT clone pKRT2 containing only the RT p66 gene regulated by the lac operon/trc promoter; made in house; host or cells: E. coli JM109, vector pKK233-2
Text: as §1, §2, §3, §4

HIV-1 RT K103N/L100I = target: T3, HIV-1 RT K103N/L100I (Human immunodeficiency virus type 1 group M subtype B, UniProt P03366, K702N/L699I); test: Reverse transcriptase (RT) assay, K103N/L100I mutant; format: biochemical
T3 construct: an HIV RT clone pKRT2 containing only the RT p66 gene regulated by the lac operon/trc promoter; made in house; host or cells: E. coli JM109, vector pKK233-2
Text: as §1, §2, §3, §4

HIV-1 RT wild-type (WT) = target: T4, HIV-1 RT wild-type (WT) (Human immunodeficiency virus type 1 group M subtype B, UniProt P03366); test: Reverse transcriptase (RT) assay, wild-type enzyme; format: biochemical
T4 construct: an HIV RT clone pKRT2 containing only the RT p66 gene regulated by the lac operon/trc promoter; made in house; host or cells: E. coli JM109, vector pKK233-2
Text: as §1, §2, §3, §4

HIV-1 RT K103N/Y181C = target: T5, HIV-1 RT K103N/Y181C (Human immunodeficiency virus type 1 group M subtype B, UniProt P03366, K702N/Y780C); test: Reverse transcriptase (RT) assay, K103N/Y181C mutant; format: biochemical
T5 construct: an HIV RT clone pKRT2 containing only the RT p66 gene regulated by the lac operon/trc promoter; made in house; host or cells: E. coli JM109, vector pKK233-2
Text: as §1, §2, §3, §4

HIV-1 RT Y181C = target: T6, HIV-1 RT Y181C (Human immunodeficiency virus type 1 group M subtype B, UniProt P03366, Y780C); test: Reverse transcriptase (RT) assay, Y181C mutant; format: biochemical
T6 construct: an HIV RT clone pKRT2 containing only the RT p66 gene regulated by the lac operon/trc promoter; made in house; host or cells: E. coli JM109, vector pKK233-2
Text: as §1, §2, §3, §4

HIV-1 RT V106A = target: T7, HIV-1 RT V106A (Human immunodeficiency virus type 1 group M subtype B, UniProt P03366, V705A); test: Reverse transcriptase (RT) assay, V106A mutant; format: biochemical
T7 construct: an HIV RT clone pKRT2 containing only the RT p66 gene regulated by the lac operon/trc promoter; made in house; host or cells: E. coli JM109, vector pKK233-2
Text: as §1, §2, §3, §4

HIV-1 RT K103N/P225H = target: T8, HIV-1 RT K103N/P225H (Human immunodeficiency virus type 1 group M subtype B, UniProt P03366, K702N/P824H); test: Reverse transcriptase (RT) assay, K103N/P225H mutant; format: biochemical
T8 construct: an HIV RT clone pKRT2 containing only the RT p66 gene regulated by the lac operon/trc promoter; made in house; host or cells: E. coli JM109, vector pKK233-2
Text: as §1, §2, §3, §4

HIV-1 RT K103N = target: T9, HIV-1 RT K103N (Human immunodeficiency virus type 1 group M subtype B, UniProt P03366, K702N); test: Reverse transcriptase (RT) assay, K103N mutant; format: biochemical
T9 construct: an HIV RT clone pKRT2 containing only the RT p66 gene regulated by the lac operon/trc promoter; made in house; host or cells: E. coli JM109, vector pKK233-2
Text: as §1, §2, §3, §4

[2] = test system: HIV coding for mutant reverse transcriptase Y188L; test: ELISA (p24) assay of HIV replication in C8166 cell culture, Y188L virus; format: cell-based, HIV-1; settings: Human immunodeficiency virus 1, C8166, 72 h, read-out: EC50 Y188L
Experimental: as §5

[3] = test system: HIV coding for mutant reverse transcriptase K103N/Y181C; test: ELISA (p24) assay of HIV replication in C8166 cell culture, K103N/Y181C virus; format: cell-based, HIV-1; settings: Human immunodeficiency virus 1, C8166, 72 h, read-out: EC50 K103N/Y181C
Experimental: as §5

[4] = test system: HIV coding for mutant reverse transcriptase V106A; test: ELISA (p24) assay of HIV replication in C8166 cell culture, V106A virus; format: cell-based, HIV-1; settings: Human immunodeficiency virus 1, C8166, 72 h, read-out: EC50 V106A
Experimental: as §5

SMILES	IC50 (HIV-1 RT Y188L) [nM]	EC50 [1] [nM]	IC50 (HIV-1 RT K103N/V108I) [nM]	IC50 (HIV-1 RT K103N/L100I) [nM]	IC50 (HIV-1 RT wild-type (WT)) [nM]	IC50 (HIV-1 RT K103N/Y181C) [nM]	IC50 (HIV-1 RT Y181C) [nM]	IC50 (HIV-1 RT V106A) [nM]	IC50 (HIV-1 RT K103N/P225H) [nM]	IC50 (HIV-1 RT K103N) [nM]	EC50 [2] [nM]	EC50 [3] [nM]	EC50 [4] [nM]
CCN1c2ncc(CCOc3cc[n+]([O-])c4ccccc34)cc2C(=O)Nc2c(C)cc(Cl)nc21 [compound 14, 2-Chloro-5,11-dihydro-11-ethyl-4-methyl-8-{2-{(1-oxido-4-quinolinyl)-oxy}ethyl}-6H-dipyrido[3,2-b:2′,3′-e][1,4]diazepin-6-one]	2300	0.67	59	24	15	61	28	77	30	19	–	–	–
CCN1c2ncc(CCOc3ccnc4ccccc34)cc2C(=O)N(C)c2ccc(F)nc21 [compound 4, 5,11-Dihydro-11-ethyl-2-fluoro-5-methyl-8-{2-(4-quinolinyloxy)ethyl}-6H-dipyrido[3,2-b:2′,3′-e][1,4]diazepin-6-one]	520	0.98	32	108	11	52	26	206	27	22.5	–	–	–
CCN1c2ncc(CCOc3cc[n+]([O-])c4ccccc34)cc2C(=O)Nc2c(C)cc(F)nc21 [compound 9, 5,11-Dihydro-11-ethyl-2-fluoro-4-methyl-8-{2-{(1-oxido-4-quinolinyl)-oxy}ethyl}-6H-dipyrido[3,2-b:2′,3′-e][1,4]diazepin-6-one]	3390	0.92	58	88	14	175	43	98	25	23	118	7.6	5
CCN1c2ncc(CCOc3cccc4c3ccc[n+]4[O-])cc2C(=O)N(C)c2ccc(F)nc21 [compound 18, 5,11-Dihydro-11-ethyl-2-fluoro-5-methyl-8-{2-{(1-oxido-5-quinolinyl)-oxy}ethyl}-6H-dipyrido[3,2-b:2′,3′-e][1,4]diazepin-6-one]	1170	0.34	96	158	11	146	41	737	20	37	–	9.5	–
